# Measured values: ChEMBL document CHEMBL1201862, “PubChem BioAssay data set” (2004)
# The source made the active and inactive calls.
# Assays:
# [1] = target: T1, Heat shock factor protein 1 (Mus musculus, UniProt P38532); test: enhancement of HSF1-driven luciferase signal – cell-based, NIH3T3, luminescence, dose retest, confirmation (AID 435004); type: functional;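 note: stress induced by proteasome inhibitor MG132 added 30 min after compound; luciferase reporter driven by HSF1 response element in NIH3T3 cells; actives raise luminescence as potentiators of the MG132 stress response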
# T1 sequence (P38532 whole entry): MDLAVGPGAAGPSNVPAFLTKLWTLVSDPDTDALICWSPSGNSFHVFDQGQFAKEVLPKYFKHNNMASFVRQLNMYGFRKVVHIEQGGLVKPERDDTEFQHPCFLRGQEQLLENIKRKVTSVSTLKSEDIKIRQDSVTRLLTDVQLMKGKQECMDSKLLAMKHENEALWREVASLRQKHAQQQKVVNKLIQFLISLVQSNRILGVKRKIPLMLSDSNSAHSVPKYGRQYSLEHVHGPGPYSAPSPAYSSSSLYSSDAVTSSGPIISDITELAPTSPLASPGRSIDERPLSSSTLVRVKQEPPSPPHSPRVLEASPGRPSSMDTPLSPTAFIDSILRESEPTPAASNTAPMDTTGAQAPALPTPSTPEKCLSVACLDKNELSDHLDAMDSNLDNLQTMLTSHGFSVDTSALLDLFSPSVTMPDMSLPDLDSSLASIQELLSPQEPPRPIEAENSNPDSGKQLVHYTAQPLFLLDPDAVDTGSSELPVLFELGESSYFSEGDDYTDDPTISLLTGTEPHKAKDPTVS
# [2] = target: Large T antigen (Simian virus 40, UniProt P03070); type: functional, Betapolyomavirus macacae;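 note: Confirmatory-stage PubChem screen for compounds that inhibit SV40 T antigen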
# Large T antigen, sequence (P03070 whole entry): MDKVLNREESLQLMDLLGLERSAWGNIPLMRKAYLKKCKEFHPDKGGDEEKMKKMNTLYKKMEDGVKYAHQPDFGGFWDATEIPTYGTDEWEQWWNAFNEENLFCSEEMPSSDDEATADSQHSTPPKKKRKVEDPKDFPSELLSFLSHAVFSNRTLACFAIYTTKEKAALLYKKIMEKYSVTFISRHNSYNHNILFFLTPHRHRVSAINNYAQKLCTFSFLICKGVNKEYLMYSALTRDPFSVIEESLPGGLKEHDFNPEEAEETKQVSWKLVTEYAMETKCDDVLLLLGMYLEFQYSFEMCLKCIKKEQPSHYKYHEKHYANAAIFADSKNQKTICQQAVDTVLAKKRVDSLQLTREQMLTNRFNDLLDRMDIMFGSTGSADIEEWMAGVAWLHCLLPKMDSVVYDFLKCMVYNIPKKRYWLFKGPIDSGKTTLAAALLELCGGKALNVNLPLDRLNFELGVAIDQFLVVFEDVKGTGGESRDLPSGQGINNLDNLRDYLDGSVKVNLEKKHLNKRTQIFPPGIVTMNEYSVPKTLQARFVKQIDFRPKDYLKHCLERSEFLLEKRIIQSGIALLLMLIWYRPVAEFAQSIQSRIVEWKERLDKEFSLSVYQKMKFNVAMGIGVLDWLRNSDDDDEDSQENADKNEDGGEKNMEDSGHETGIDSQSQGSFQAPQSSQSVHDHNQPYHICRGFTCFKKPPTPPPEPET
# [3] = cells; type: functional
# [4] = Luminescence Cell-Based Dose Response HTS to Identify Activators of Luciferase Translation or Activity in H4 […] Cells. [Related pubchem assays: 1829 (Project Summary), 1814 (Primary HTS)]; type: functional
# [5] = tested on: H4; test: Luminescence Cell-Based Dose Response HTS to Identify Activators of 5'UTR Stem-Loop Driven Prion Protein mRNA Translation in H4 Neuroglioblastoma Cells. [Related pubchem assays: 1829 (Project Summary), 1814 (Primary HTS)]; type: functional; settings: Homo sapiens
# [6] = target: FAD-linked sulfhydryl oxidase ALR (Homo sapiens, UniProt P55789); test: ALR-catalysed DTT oxidation blockers – biochemical, H2O2 detection, luminescence, cherry-pick, dose response (AID 493248)
# FAD-linked sulfhydryl oxidase ALR, sequence (P55789 whole entry): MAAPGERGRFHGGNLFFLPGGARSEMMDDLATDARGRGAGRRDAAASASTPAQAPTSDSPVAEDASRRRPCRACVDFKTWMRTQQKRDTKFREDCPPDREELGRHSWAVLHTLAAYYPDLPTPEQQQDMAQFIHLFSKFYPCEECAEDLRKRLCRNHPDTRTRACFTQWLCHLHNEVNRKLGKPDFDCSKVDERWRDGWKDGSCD
# [7] = target: T2, Microphthalmia-associated transcription factor (Homo sapiens, UniProt O75030); test: reducers of TRPM1 reporter luminescence, concentration series – cell-based, SK-MEL-5, cherry-picked, set 3, MITF inhibitor project, dose response (AID 493073); type: functional;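 note: SK-MEL-5 melanoma cells with luciferase driven by the MITF target TRPM1 promoter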
# T2 sequence (O75030 whole entry): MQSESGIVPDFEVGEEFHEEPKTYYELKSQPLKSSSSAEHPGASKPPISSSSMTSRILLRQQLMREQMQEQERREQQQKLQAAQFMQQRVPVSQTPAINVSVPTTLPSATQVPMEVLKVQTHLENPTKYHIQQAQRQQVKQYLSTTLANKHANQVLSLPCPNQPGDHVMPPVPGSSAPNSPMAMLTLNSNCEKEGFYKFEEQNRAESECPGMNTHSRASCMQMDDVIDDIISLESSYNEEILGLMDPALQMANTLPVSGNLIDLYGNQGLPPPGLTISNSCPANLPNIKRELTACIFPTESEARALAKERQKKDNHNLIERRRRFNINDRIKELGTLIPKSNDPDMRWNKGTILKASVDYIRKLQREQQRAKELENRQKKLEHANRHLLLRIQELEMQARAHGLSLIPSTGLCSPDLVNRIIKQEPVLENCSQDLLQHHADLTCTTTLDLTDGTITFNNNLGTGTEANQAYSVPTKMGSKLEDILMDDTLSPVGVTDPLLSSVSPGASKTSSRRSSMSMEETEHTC
# [8] = cells; type: functional, cell-based
# [9] = cells; type: functional, cell-based; remark: listed apart in the source
# [10] = target: T3, Protein skinhead-1 (Caenorhabditis elegans, UniProt P34707); type: functional
# T3 sequence (P34707 whole entry): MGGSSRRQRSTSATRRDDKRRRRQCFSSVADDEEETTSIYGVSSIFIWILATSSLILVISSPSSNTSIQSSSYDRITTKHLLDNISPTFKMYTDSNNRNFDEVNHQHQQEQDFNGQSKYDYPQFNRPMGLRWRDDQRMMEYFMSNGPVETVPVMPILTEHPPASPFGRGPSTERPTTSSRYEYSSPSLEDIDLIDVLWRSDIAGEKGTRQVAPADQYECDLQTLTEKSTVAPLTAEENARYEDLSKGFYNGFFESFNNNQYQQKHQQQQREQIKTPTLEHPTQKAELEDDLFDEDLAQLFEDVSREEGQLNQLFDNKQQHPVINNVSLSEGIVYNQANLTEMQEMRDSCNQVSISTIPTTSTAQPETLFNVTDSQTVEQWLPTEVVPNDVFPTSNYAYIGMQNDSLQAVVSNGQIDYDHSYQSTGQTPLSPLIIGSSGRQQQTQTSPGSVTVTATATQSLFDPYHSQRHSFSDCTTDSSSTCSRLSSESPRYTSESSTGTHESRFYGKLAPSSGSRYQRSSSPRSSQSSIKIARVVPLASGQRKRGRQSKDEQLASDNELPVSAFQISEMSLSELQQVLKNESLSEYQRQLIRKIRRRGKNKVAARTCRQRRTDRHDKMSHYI
# [11] = target: T1, Heat shock factor protein 1; test: decrease of HSF1-responsive luciferase luminescence – cell-based, NIH3T3, dose retest, confirmation (AID 2382); type: functional;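 note: NIH3T3 fibroblasts with HSF1-driven luciferase reporter stressed by proteasome inhibitor MG132; luminescence from HSF1-driven luciferase expression after 8 hours of MG132 stress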
# [12] = viability of uninfected HEp-2 cells – cell-based, HTS, cytotoxicity control for RSV inhibitor project, dose response (AID 2410); type: functional; settings: human respiratory syncytial virus
# [13] = tested on: Streptococcus sp. 'group A'; test: Streptococcus pyogenes SK(-)GAS viability under kanamycin – luminescence, BacTiterGlo, confirmation, counter-screen for streptokinase expression inhibitor project, dose response (AID 1900); type: functional, organism-based
# [14] = target: T4, Streptokinase A (Streptococcus pyogenes serotype M1, UniProt P10520); test: viability-normalized secreted streptokinase activity reduction – plasminogen activation absorbance, OD405, dose response (AID 1914); type: functional, Streptococcus pyogenes M1 GAS;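 note: secreted streptokinase activity via plasminogen activation per viability signal from cell pellet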
# T4 sequence (P10520 whole entry): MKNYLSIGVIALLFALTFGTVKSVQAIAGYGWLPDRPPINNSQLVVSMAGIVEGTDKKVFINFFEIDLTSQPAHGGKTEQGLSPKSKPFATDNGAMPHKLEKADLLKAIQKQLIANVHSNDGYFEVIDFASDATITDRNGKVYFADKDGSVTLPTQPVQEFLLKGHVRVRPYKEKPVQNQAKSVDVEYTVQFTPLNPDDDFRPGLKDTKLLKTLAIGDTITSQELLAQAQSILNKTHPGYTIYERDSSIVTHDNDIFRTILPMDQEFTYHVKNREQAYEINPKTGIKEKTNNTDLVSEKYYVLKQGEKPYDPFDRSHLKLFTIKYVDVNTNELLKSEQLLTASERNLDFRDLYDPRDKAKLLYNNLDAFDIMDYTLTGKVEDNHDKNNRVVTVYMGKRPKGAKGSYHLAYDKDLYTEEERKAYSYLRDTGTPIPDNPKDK
# [15] = tested on: Streptococcus; test: GAS UMAA2166 growth inhibition – luminescence, BacTiterGlo, counter-screen for streptokinase expression inhibitor project, dose response (AID 1915); type: functional, organism-based;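 note: potency for reduction of bacterial viability or growth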
# [16] = Luminescence Cell-Based Dose Retest to Confirm Inhibitors of Cancer Stem Cells. [Related pubchem assays (depositor defined):AID2717, AID2721]; type: functional; settings: Homo sapiens
# [17] = non-specific 3'UTR reporter inhibition in Clone20-Shn3RL – cell-based, Renilla luciferase, cherry-picked, counter-screen for Shn3 inhibitor project, dose response (AID 624133); type: functional
# [18] = luciferase reporter signal suppression in cells – H4 neuroglioma cells, luminescence, dose response (AID 1990); type: functional, cell-based
# [19] = Luminescence Cell-Based Dose Response HTS to Identify Inhibitors of 5'UTR Stem-Loop Driven Prion Protein mRNA Translation in H4 Neuroglioblastoma Cells. [Related pubchem assays: 1827 (Project Summary), 1813 (Primary HTS)]; type: functional
# [20] = alpha-synuclein stem-loop luciferase translation blockers – H4 neuroglioma cells, luminescence, confirmation (AID 1988); type: functional, cell-based
# [21] = tested on: INS1; test: INS-1E survival protection against cytokine death – cell-based, luminescence, retest, dose response (AID 449756); type: functional; settings: Rattus norvegicus;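 note: cell death triggered by IL-1 beta plus TNF-alpha plus IFN-gamma mixture; protective hits raise ATP signal compared with cytokine alone wells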
# [22] = target: Cytochrome P450 2D6 (Homo sapiens, UniProt P10635);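 note: CYP2D6 member of a cytochrome P450 panel assay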
# Cytochrome P450 2D6, sequence (P10635 whole entry): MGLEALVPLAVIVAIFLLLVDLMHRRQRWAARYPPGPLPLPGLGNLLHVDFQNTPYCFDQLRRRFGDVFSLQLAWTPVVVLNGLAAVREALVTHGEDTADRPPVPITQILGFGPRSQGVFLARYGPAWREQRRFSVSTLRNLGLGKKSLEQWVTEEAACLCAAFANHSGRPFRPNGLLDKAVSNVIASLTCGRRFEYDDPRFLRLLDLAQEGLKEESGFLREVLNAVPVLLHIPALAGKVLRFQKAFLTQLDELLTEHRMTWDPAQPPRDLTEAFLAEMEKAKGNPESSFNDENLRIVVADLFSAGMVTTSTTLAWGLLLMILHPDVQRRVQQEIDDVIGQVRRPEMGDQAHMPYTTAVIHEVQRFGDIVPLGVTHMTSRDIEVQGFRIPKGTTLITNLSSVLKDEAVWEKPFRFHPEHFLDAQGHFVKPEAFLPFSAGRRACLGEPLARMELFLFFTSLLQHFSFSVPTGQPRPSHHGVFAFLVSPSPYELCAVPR
smiles,measurement,setting,value
COc1ccccc1CCC(=O)OCC(=O)Nc1c(Br)cc(C)cc1Br,EC50,[1],> 260 µM (inactive)
COc1cc(C2OCC3C(c4ccc(OC5OC(CO)C(O)C(O)C5O)c(OC)c4)OCC23)ccc1O (stereo not given),IC50,[2],21.3 µM (active)
COc1ccc(N2CSC3=C(C#N)C(c4cc(OC)ccc4OC)CC(=O)N3C2)c(OC)c1 (stereo not given),IC50,[2],63.1 µM (active)
COC(=O)CN(C#N)c1nc(N(C)C)nc(N(C)C)n1,IC50,[3],9.57 µM (active)
Cc1cc(C=C2C(=O)N(C)C(=S)N(C)C2=O)c(C)n1-c1ccncc1,IC50,[2],50.2 µM (active)
O=C(NCCCN1CCCC1=O)C(=O)Nc1cccc(F)c1,EC50,[4],0.233 µM (active)
same,EC50,[5],> 120 µM (not active)
O=C(COC(=O)c1ccccc1C(=O)c1ccccc1)Nc1cccc([N+](=O)[O-])c1,EC50,[1],> 260 µM (inactive)
CCn1nnc(NC(=O)c2sc3ccccc3c2Cl)n1,IC50,[3],19.2 µM (active)
CN(C)c1ccc(CNc2ccc3c(c2)ncn3C)cc1,IC50,[2],22.1 µM (active)
same,AC50,[6],1.78 µM (active)
CCOC(=O)c1cc(-c2csc(COc3ccc(Cl)cc3)n2)on1,IC50,[3],< 0.1 µM (active)
COc1cccc(NC(=O)c2cc3c(=O)n4ccccc4nc3n(CC(C)C)c2=N)c1,AC50,[7],7.02 µM (active)
Cc1ccc(/C=C(\C#N)c2nn(-c3ccccc3)c(N)c2C#N)cc1,EC50,[8],> 350 µM (not active)
same,EC50,[9],> 350 µM (not active)
COc1cc(NS(=O)(=O)c2ccc(Br)cc2)c(OC)cc1NC(=O)c1ccco1,IC50,[10],> 100 µM (inactive)
CCOc1ccc(-c2nnc(NC(=O)CCCOc3cccc(C)c3)o2)cc1,IC50,[3],5.86 µM (active)
Cc1cc(-c2nnc(CCC(=O)N(C)Cc3cccc4ccccc34)o2)no1,EC50,[1],> 260 µM (inactive)
Cc1ccc(N2NC(=O)/C(=C/C=C/c3ccco3)C2=O)cc1C,IC50,[3],13 µM (active)
Cc1nc2ccccc2cc1OCc1ccc(Cl)cc1,IC50,[10],57.9 µM (inactive)
CC(=O)O[C@H]1C[C@@]2(C)[C@@H](C[C@@H](O)[C@H]3[C@@]4(C)CC[C@@H](O)[C@@H](C)[C@@H]4CC[C@@]32C)/C1=C(/CCC=C(C)C)C(=O)O,IC50,[2],31.6 µM (active)
COC(=O)COc1ccc(-c2nn(C)c(=O)c3ccccc23)cc1,IC50,[3],2.56 µM (active)
O=C(Nc1nc(=O)c2ccccc2s1)c1ccc(F)cc1,EC50,[4],0.107 µM (active)
same,EC50,[5],> 120 µM (not active)
CNc1nc(-c2ccc3c(c2)CCN3C(=O)c2cccc(F)c2)cs1,EC50,[4],1.41 µM (active)
same,EC50,[5],4.2 µM (active)
CCCN(CC(=O)Nc1ccc(Cl)cc1Cl)C(=O)/C=C/c1ccco1,EC50,[1],17.6 µM (active)
C=CCn1c(N2CCCCCC2)nc2c1c(=O)[nH]c(=O)n2C,EC50,[8],> 350 µM (not active)
same,EC50,[9],> 350 µM (not active)
COCCNC(=O)C(c1ccc(C)o1)N(Cc1ccc(OC)cc1)C(=O)Cn1nnc2ccccc21 (stereo not given),IC50,[10],> 100 µM (inactive)
Clc1ccc(SCc2cc(-c3ccccc3)on2)cc1,IC50,[10],> 100 µM (inactive)
CCn1nc(C(=O)OCC(=O)NC(C)C)c2ccccc2c1=O,EC50,[8],> 350 µM (not active)
same,EC50,[11],> 195 µM (not active)
same,EC50,[9],> 350 µM (not active)
CCOC(=O)c1cc(-c2cccs2)nc2c1c(C)nn2-c1ccccn1,CC50,[12],16.4 µM (active)
same,EC50,[13],13.1 µM (active)
same,EC50,[14],122 µM (active)
same,EC50,[15],21.6 µM (active)
same,AC50,[16],8.5 µM (active)
Cc1cc(C)c2c(N)c(C(=O)Nc3ccccc3F)sc2n1,EC50,[8],> 350 µM (not active)
same,EC50,[9],131 µM (active)
O=C(COc1ccc(-c2ccccc2)cc1)Nc1cccnc1,IC50,[3],4.39 µM (active)
COc1ccc(C2(c3ccc(OC)cc3)NC(=O)N(CC(=O)N(C)c3ccccc3)C2=O)cc1,EC50,[1],> 260 µM (inactive)
Brc1ccc(CSc2nnc(-c3ccco3)o2)cc1,IC50,[10],8.76 µM (active)
COc1cccc2cc(C(=O)NCc3ccc(F)cc3)c(=N)oc12,IC50,[3],> 50 µM (active)
CC1(C)C(=Cc2ccccc2)C(=O)c2ccccc21,IC50,[10],18 µM (active)
OC(c1ccccc1)C(O)C(c1ccccc1)N1CCCCC1 (stereo not given),AC50,[17],23.1 µM (active)
CCCS(=O)(=O)NC(=O)C1(C)CCN(C(=O)c2cccc(C)c2C)C1 (stereo not given),IC50,[10],> 100 µM (inactive)
O=C(N/N=C/c1cc([N+](=O)[O-])ccc1O)c1cccc2cc[nH]c12,EC50,[18],> 120 µM (not active)
same,EC50,[8],311 µM (active)
same,EC50,[19],10.3 µM (active)
same,EC50,[20],14.8 µM (active)
same,EC50,[9],24.6 µM (active)
same,AC50,[21],2.02 µM (active)
COc1cc(NS(=O)(=O)c2ccc(C)cc2)c2c(c1N)C(=O)c1ccccc1C2=O,IC50,[10],> 100 µM (inactive)
COc1cc(/C=N/NC(=O)c2ccc3[nH]cnc3c2)ccc1O,IC50,[2],7.38 µM (active)
COc1cc(/C(C)=N/NC(=O)CSc2nnc(C)s2)ccc1O,IC50,[2],24.2 µM (active)
O=C(COc1ccc(Cl)cc1Cl)N/N=C/CCc1ccccc1,EC50,[8],> 350 µM (not active)
same,EC50,[9],> 350 µM (not active)
same,AC50,[22],3.16 µM (inconclusive)
